US20110015226A1, “Treatment of Energy Utilization Disease” (SUMMIT CORPORATION PLC, priority 2008, published 2011)
Like-named read-outs stand apart in the source and are kept apart here.

Key:
Format in all cases: biochemical
α-D-glucosidase (Yeast) = target: T1, α-D-glucosidase (Yeast) (Saccharomyces cerevisiae, UniProt P53341); assay: Glycosidase inhibition: α-D-glucosidase (Yeast); conditions: compounds tested at 0.8 mM
T1 construct: purchased Sigma
From the text: (§1) The results tabulated below were obtained using commercially available glycosidases and p-nitrophenyl-substrates using standard methods described for example by Watson et al (1997) Phytochemistry 46 255-259. All enzymes and substrates were bought from Sigma. Enzyme and substrate solutions were made using sodium phosphate buffers at the pH optima values. The enzymes used were α-D-glucosidase Saccharomyces cerevisiae, Bacillus stearothermophilus, Oryzae sativa), β-D-glucosidase (Almond), α-D-mannosidase (Jack bean), α-D-galactosidase (Green coffee beans), β-D-galactosidase (Bovine liver), α-L-fucosidase (Bovine kidney), N-acetyl-β-D-glucosaminidase (Bovine kidney, Jack bean, Aspergillus oryzae), Naringinase (Penicillium decumbens) and amyloglucosidase (Aspergillus niger). All enzymes were used with the appropriate p-nitrophenyl substrates (5 mM). Amyloglucosidase activity was measured using amylopectin (0.1%) (Merck) mixed with sodium phosphate buffer, pH 4.5 in a glass bottle, and healed in a boiling water bath for 20 minutes to dissolve with released glucose measured using ‘Trinder’ glucose detection solution (Sigma).
(§2) All enzymes and para-nitrophenyl substrates were purchased from Sigma, with the exception of beta-mannosidase which came from Megazyme. Enzymes were assayed at 27° C. in 0.1M citric acid/0.2M disodium hydrogen phosphate buffers at the optimum pH for the enzyme. The incubation mixture consisted of 10 μl enzyme solution, 10 μl of 1 mg/ml aqueous solution of extract and 50 μl of the appropriate 5 mM para-nitrophenyl substrate made up in buffer at the optimum pH for the enzyme. The reactions were stopped by addition of 70 μl 0.4M glycine (pH 10.4) during the exponential phase of the reaction, which had been determined at the beginning using uninhibited assays in which water replaced inhibitor. Final absorbances were read at 405 nm using a Versamax microplate reader (Molecular Devices). Assays were carried out in triplicate, and the values given are means of the three replicates per assay. (See Watson, A. A., Nash, R. J., Wormald, M. R., Harvey, D. J., Dealler, S., Lees, E., Asano, N., Kizu, H., Kato, A., Griffiths, R. C., Cairns, A. J. and Fleet, G. W. J. (1997). Glycosidase-inhibiting pyrrolidine alkaloids from Hyacinthoides non-scripta. Phytochemistry 46 (2): 255-259.)

[1] = target: α-D-glucosidase (Bacillus) (Geobacillus stearothermophilus, UniProt A0ACH1E9U3); assay: Glycosidase inhibition: α-D-glucosidase (Bacillus); conditions: compounds tested at 0.8 mM
α-D-glucosidase (Bacillus), sequence (A0ACH1E9U3 entry or part of it): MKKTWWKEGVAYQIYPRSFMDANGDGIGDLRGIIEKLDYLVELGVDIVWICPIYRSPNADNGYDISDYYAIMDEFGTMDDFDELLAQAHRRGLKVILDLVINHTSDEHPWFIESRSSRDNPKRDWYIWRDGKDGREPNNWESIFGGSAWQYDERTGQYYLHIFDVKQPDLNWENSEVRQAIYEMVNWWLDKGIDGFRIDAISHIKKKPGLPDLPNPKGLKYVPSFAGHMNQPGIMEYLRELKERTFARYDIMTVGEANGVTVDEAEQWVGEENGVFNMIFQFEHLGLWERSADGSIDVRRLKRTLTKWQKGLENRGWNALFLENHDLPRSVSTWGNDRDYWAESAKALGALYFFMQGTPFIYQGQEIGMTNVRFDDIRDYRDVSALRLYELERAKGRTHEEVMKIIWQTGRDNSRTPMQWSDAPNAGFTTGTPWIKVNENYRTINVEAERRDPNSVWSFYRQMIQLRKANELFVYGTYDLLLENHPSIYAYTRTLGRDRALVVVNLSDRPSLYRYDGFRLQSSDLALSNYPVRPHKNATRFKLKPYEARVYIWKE
From the text: as §1, §2

α-D-glucosidase (Rice) = target: T2, α-D-glucosidase (Rice) (Oryza sativa subsp. japonica, UniProt Q653V7); assay: Glycosidase inhibition: α-D-glucosidase (Rice); conditions: for inhibition at 800 µM: compounds tested at 0.8 mM
T2 construct: purchased Sigma
T2 sequence (Q653V7 34-885): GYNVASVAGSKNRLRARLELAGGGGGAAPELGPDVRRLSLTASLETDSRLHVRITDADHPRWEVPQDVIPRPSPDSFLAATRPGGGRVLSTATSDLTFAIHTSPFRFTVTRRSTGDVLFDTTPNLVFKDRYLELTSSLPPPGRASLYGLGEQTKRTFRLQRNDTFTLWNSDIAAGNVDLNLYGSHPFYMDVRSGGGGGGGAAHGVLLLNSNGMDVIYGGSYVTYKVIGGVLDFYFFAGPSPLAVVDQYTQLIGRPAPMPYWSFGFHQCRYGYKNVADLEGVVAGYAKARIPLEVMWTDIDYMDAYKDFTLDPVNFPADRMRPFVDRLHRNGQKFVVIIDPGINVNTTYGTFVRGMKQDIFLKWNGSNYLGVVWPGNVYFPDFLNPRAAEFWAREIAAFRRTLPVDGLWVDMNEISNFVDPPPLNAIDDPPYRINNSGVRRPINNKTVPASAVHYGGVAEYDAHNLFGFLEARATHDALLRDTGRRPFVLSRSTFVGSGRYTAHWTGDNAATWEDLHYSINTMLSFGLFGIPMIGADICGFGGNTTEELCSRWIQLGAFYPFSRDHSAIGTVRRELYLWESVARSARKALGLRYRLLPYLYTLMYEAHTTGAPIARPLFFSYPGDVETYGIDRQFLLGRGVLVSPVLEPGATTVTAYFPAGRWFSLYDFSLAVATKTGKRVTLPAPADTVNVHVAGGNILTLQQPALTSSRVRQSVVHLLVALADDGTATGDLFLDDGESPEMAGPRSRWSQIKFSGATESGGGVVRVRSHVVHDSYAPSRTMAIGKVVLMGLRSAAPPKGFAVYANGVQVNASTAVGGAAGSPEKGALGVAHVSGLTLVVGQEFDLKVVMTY

[2] = target: T3, α-D-galactosidase Green coffee bean (Coffea arabica, UniProt Q42656); assay: Glycosidase inhibition: α-D-galactosidase Green coffee bean; conditions: compounds tested at 0.8 mM
T3 construct: α-D-galactosidase (Green coffee beans); purchased Sigma; host or cells: green coffee beans
T3 sequence (Q42656 16-378): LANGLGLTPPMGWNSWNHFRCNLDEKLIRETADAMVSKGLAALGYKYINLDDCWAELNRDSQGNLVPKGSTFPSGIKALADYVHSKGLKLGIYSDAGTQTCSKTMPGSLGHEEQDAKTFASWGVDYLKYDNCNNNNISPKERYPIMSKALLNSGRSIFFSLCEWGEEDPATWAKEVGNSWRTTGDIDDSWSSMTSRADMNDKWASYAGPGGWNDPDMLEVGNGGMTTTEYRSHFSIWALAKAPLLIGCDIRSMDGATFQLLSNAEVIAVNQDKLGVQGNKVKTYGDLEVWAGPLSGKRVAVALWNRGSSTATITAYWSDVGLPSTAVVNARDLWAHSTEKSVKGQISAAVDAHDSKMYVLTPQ
From the text: as §1, §2

[3] = target: T4, α-L-fucosidase Bovine kidney (Bos taurus, UniProt Q2KIM0); assay: Glycosidase inhibition: α-L-fucosidase Bovine kidney; conditions: compounds tested at 0.8 mM
T4 construct: α-L-fucosidase (Bovine kidney); purchased Sigma; host or cells: bovine kidney
T4 sequence (Q2KIM0 23-468): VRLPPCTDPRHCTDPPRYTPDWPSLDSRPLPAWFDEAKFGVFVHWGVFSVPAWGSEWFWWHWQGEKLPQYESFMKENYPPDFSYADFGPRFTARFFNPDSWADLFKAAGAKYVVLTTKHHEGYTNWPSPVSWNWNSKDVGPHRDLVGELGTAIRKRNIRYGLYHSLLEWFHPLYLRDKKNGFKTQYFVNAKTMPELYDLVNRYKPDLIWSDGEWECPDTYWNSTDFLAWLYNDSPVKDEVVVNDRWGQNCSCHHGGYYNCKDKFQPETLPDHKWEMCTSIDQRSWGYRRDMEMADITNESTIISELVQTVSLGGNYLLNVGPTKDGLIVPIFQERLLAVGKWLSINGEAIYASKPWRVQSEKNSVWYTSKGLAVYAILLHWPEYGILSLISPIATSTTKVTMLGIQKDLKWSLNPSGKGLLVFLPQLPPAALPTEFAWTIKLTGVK

[4] = target: T5, α-D-mannosidase Jack bean (Canavalia ensiformis, UniProt C0HJB3); assay: Glycosidase inhibition: α-D-mannosidase Jack bean; conditions: compounds tested at 0.8 mM
T5 construct: α-D-mannosidase (Jack bean); purchased Sigma
T5 sequence (C0HJB3 1-981): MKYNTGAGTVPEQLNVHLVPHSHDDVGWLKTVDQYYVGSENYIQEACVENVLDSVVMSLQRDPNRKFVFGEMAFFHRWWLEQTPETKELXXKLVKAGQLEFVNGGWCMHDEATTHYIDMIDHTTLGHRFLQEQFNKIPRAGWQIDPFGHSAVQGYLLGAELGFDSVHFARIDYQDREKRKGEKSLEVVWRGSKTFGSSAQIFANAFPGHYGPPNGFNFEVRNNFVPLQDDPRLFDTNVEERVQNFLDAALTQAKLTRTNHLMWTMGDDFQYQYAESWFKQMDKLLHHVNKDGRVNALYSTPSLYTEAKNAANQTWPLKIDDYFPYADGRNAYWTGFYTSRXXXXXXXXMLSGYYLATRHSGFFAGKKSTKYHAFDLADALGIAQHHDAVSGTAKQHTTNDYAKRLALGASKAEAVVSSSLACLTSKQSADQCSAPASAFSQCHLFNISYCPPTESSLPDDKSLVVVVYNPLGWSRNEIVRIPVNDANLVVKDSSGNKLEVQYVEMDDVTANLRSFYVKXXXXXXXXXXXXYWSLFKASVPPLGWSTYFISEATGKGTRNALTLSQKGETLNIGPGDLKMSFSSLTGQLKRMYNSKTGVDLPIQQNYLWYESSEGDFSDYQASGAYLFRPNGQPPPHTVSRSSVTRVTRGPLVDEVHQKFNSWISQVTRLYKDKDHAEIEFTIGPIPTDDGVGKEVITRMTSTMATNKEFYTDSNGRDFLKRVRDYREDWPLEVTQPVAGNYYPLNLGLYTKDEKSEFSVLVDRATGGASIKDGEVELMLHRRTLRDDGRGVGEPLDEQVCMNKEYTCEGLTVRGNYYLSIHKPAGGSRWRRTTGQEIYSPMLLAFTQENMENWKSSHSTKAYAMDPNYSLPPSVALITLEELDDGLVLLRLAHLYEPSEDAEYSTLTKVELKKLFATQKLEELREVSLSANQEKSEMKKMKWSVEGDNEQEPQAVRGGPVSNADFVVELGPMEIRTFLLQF

[5] = test system: N-acetyl-β-D-glucosaminidase (Bovine kidney); assay: Glycosidase inhibition: N-acetyl-β-D-glucosaminidase (Bovine kidney); conditions: for % inhibition, N-acetyl-β-D-glucosaminidase (Bovine kidney): compounds tested at 0.8 mM;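 for all read-outs here: enzyme activity followed by cleavage of the matching p-nitrophenyl glycoside (5 mM) in phosphate buffer set to the enzyme's optimal pH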
[6] = target: T6, N-acetyl-β-D-glucosaminidase (A. oryzae) (Aspergillus oryzae, UniProt Q8J2T0); assay: Glycosidase inhibition: N-acetyl-β-D-glucosaminidase (A. oryzae); conditions: compounds tested at 0.8 mM
T6 construct: purchased Sigma
T6 sequence (Q8J2T0 97-600): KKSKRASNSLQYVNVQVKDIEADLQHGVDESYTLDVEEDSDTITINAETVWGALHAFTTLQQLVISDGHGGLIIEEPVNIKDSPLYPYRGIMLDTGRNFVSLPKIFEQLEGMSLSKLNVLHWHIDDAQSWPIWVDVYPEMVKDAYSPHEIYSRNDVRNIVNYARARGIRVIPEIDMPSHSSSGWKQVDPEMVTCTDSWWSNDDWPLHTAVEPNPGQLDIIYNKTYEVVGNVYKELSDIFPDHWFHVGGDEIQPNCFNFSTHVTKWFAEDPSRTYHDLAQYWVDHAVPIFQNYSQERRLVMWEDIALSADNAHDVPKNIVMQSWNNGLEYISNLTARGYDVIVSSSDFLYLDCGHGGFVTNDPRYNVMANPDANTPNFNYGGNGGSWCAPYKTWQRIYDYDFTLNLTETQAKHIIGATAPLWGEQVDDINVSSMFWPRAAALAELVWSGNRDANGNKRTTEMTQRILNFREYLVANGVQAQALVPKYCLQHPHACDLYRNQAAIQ
From the text: as §1, §2

[7] = target: T7, Amyloglucosidase Aspergillus niger (Aspergillus niger, UniProt P69328); assay: Glycosidase inhibition: Amyloglucosidase Aspergillus niger; conditions: compounds tested at 0.8 mM
T7 construct: purchased Sigma
T7 sequence (P69328 25-640): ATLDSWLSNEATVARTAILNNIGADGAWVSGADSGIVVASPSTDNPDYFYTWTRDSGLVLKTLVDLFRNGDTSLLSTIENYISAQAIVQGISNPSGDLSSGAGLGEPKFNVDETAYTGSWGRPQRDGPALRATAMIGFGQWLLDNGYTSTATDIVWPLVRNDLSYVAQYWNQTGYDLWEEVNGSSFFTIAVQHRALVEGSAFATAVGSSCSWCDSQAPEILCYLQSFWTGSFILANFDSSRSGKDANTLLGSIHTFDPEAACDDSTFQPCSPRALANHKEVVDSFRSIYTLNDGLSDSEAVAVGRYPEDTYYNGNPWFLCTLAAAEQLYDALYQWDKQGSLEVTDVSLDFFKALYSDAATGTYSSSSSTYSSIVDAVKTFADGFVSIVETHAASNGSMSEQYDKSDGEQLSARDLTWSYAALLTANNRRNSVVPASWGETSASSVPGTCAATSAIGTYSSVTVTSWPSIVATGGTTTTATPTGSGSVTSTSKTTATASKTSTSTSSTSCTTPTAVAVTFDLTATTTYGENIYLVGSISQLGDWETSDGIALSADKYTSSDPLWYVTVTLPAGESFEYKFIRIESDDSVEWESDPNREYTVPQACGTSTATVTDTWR
From the text: as §1, §2

[8] = target: T8, β-Glucuronidase Bovine liver (Bos taurus, UniProt A3KMY8); assay: Glycosidase inhibition: β-Glucuronidase Bovine liver;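 note: bovine liver β-glucuronidase acting on p-nitrophenyl β-D-glucuronide substrate in citric acid/disodium hydrogen phosphate buffer, pH 5.0, 27 °C, mean of triplicate runs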
T8 construct: The assay involved the use of Bovine liver β-glucuronidase; purchased Sigma; host or cells: bovine liver
T8 sequence (A3KMY8 1-652): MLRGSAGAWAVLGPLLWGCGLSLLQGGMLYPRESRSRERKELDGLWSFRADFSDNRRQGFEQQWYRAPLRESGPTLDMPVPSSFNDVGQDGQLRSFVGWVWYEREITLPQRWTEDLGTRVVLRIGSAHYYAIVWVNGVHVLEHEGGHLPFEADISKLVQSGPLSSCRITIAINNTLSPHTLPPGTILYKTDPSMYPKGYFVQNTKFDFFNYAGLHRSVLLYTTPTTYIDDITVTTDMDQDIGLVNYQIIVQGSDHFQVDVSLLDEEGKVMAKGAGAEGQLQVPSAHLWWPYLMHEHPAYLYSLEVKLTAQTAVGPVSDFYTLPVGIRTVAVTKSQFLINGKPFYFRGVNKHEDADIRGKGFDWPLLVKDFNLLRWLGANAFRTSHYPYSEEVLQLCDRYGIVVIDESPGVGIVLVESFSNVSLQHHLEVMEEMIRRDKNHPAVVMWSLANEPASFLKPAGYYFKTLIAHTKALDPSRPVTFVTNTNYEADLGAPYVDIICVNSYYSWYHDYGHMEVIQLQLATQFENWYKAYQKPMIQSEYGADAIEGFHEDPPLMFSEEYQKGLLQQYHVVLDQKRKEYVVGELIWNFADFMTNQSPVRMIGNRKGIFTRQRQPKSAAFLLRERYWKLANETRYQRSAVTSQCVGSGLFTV

T1 sequence (P53341 whole entry): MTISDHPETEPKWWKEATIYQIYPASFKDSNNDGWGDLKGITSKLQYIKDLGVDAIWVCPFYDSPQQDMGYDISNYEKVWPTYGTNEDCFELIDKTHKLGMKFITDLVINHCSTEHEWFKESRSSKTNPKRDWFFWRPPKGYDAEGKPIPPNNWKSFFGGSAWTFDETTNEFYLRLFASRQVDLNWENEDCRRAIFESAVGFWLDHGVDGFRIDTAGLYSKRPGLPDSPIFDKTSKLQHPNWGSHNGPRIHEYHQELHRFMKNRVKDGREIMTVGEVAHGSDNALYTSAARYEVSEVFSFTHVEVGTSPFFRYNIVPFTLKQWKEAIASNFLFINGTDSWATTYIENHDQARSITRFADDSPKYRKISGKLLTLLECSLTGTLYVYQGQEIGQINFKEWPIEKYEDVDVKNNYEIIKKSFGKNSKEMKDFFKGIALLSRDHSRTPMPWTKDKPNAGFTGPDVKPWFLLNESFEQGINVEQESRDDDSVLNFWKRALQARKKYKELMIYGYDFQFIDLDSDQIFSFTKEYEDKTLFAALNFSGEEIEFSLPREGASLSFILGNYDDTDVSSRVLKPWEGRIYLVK

Structure (SMILES)	inhibition at 800 µM (α-D-glucosidase (Yeast))	inhibition at 800 µM [1]	inhibition at 800 µM (α-D-glucosidase (Rice))	IC50 (α-D-glucosidase (Rice); read-out: IC50, α-D-glucosidase (Rice))	inhibition at 800 µM [2]	inhibition at 800 µM [3]	inhibition at 800 µM [4]	% inhibition, N-acetyl-β-D-glucosaminidase (Bovine kidney) [5]	IC50 ([5]; read-out: IC50 against mammalian 6-N-acetylglucosaminidase (hexosaminidase))	inhibition at 800 µM [6]	inhibition at 800 µM [7]	IC50 ([8]; read-out: IC50 against mammalian glucuronidase)	IC50 ([5]; read-out: IC50, N-acetyl-β-D-glucosaminidase (Bovine kidney))	IC50 ([8]; pH 5.0, 27° C., p-nitrophenyl β-D-glucuronide, read-out: IC50, β-Glucuronidase Bovine liver)
O=C(O)[C@@H]1[C@@H](O)[C@H](O)[C@@H](O)CN1CCO [Compound T3, (2S,3R,4R,5S)-3,4,5-Trihydroxy-1-(2-hydroxyethyl)piperidine-2-carboxylic acid]	< 50%	< 50%	67.2%	259 µM	< 50%	< 50%	< 50%	82.0%	12.2 µM	< 50%	< 50%	60 µM	–	–
O=C(O)CN1C[C@@H](O)[C@H](O)[C@H]1CO [Compound T4, 2-((2R,3R,4R)-3,4-Dihydroxy-2-(hydroxymethyl)pyrrolidin-1-yl)acetic acid]	< 50%	< 50%	< 50%	–	< 50%	< 50%	< 50%	81.9%	–	< 50%	< 50%	–	39.6 µM	160 µM
